Laboratory results taken from patent US4104383A, “Derivatives of phenylpropenylamine” (C M Industries, priority 1973, dated 1978).
Converted amounts (≈) assume the structure as drawn.

Tested on: mouse
Assay: Activity test (spontaneous motility, photoelectric cell cage)
Type: in vivo
Details: ip, I.P., read-out: Activity, median effective dose
Description: (Boissier J. R. and Simon P. "Archives Internationales de Pharmacodynamie",1965, 158, 212).
A mouse was placed in a Plexiglass cage crossed by a plurality of beams of light acting on photoelectric cells. When the mouse moved and thereby interrupted one of the beams, this caused an electrical pulse which was registered on a counter. The measurements were carried out on batches of six treated animals and six control animals for a period of 20 minutes.
(§1) The results obtained from the tests described above are summarized in Table II; the figures given in this Table show the value of the median effective dose for each test. The method of administration is indicated by "I.V." for intravenous administration, "I.P." for intraperitoneal administration and "P.O." for oral administration.

Structure (SMILES)	ED50 [mg/kg]
CCN(CC)CCCc1ccc(C2CCCCC2)c(Cl)c1 [934 CB, 3-Chloro-4-cyclohexyl-1-(3-diethylamino-propyl)-benzene]	30
Clc1cc(CCCN2CCCC2)ccc1C1CCCCC1 [31016 CB, 3-Chloro-4-cyclohexyl-1-(3-pyrrolidino-propyl)-benzene]	12.5
Clc1cc(C=CCN2CCOCC2)ccc1C1CCCCC1 [31013 CB, 3-chloro-4-cyclohexyl-1-(3-morpholino-propen-1-yl)-benzene]	50
CN(C)CC=Cc1ccc(C2CCCCC2)c(Cl)c1 [31004 CB, 3-chloro-4-cyclohexyl-1-(3-dimethylamino-propen-1-yl)-benzene]	12.5
CCN(CC)CC=Cc1ccc(-c2ccccc2)cc1 [994 CB, 4-(3-diethylamino-propen-1-yl)-biphenyl]	100
Clc1cc(C=CCN2CCCC2)ccc1C1CCCCC1 [31015 CB, 3-Chloro-4-cyclohexyl-1-(3-pyrrolidino-propen-1-yl)-benzene]	20

Tested on: central nervous system
Assay: Traction test
Type: in vivo
Details: ip; mouse, I.P.; read-out: Traction, median effective dose
Description: (Courvoisier S., Ducrot R. and Julou L. "Psychotropic Drugs", Elsevier, 1957, p.373)
In this test, a mouse was hung by its front legs on a stretched wire. The animal will normally recover by itself, by gripping with its rear legs within 5 seconds.
as §1

Structure (SMILES)	ED50 [mg/kg]
CN(C)CC=Cc1ccc(C2CCCCC2)c(Cl)c1 [31004 CB, 3-chloro-4-cyclohexyl-1-(3-dimethylamino-propen-1-yl)-benzene]	> 100
CCN(CC)CC=Cc1ccc(-c2ccccc2)cc1 [994 CB, 4-(3-diethylamino-propen-1-yl)-biphenyl]	100
Clc1cc(C=CCN2CCCC2)ccc1C1CCCCC1 [31015 CB, 3-Chloro-4-cyclohexyl-1-(3-pyrrolidino-propen-1-yl)-benzene]	50

Tested on: central nervous system
Assay: Balancing test (rotating shaft)
Type: in vivo
Details: ip; mouse, I.P.; read-out: Balancing, median effective dose
Description: (Boissier J. R., Dumont C. and Ratouis R. "Therapie", 1960, 15, 1170)
In this test, mice were placed for 1 minute on a horizontal wooden shaft which rotated steadily at 12 r.p.m. The mice will normally counteract this movement using positional and balancing reflexes; if, however, the central nervous system is affected, these reflexes are disturbed and a certain number of animals fall off.
as §1

Structure (SMILES)	ED50 [mg/kg]
CCN(CC)CCCc1ccc(C2CCCCC2)c(Cl)c1 [934 CB, 3-Chloro-4-cyclohexyl-1-(3-diethylamino-propyl)-benzene]	12.5
CN(C)CC=Cc1ccc(C2CCCCC2)c(Cl)c1 [31004 CB, 3-chloro-4-cyclohexyl-1-(3-dimethylamino-propen-1-yl)-benzene]	100
CCN(CC)CC=Cc1ccc(-c2ccccc2)cc1 [994 CB, 4-(3-diethylamino-propen-1-yl)-biphenyl]	50
Clc1cc(C=CCN2CCCC2)ccc1C1CCCCC1 [31015 CB, 3-Chloro-4-cyclohexyl-1-(3-pyrrolidino-propen-1-yl)-benzene]	50

Tested on: mouse
Assay: Exploration test (plank with holes, anxiolytic activity)
Type: in vivo
Details: ip, I.P., read-out: Exploration, median effective dose
Description: (Boissier J. R. and Simon P. "Archives Internationales de Pharmacodynamie",1964, 147, 372).
This test, using a plank with holes in it, makes it possible to measure objectively the anxiolytic activity of a compound by noting the decrease in the number of holes explored within a given time by a treated mouse in comparison with a control mouse. The animals are used in batches of 10 and are allowed 5 minutes for exploration.
as §1

Structure (SMILES)	ED50 [mg/kg]
CCN(CC)CCCc1ccc(C2CCCCC2)c(Cl)c1 [934 CB, 3-Chloro-4-cyclohexyl-1-(3-diethylamino-propyl)-benzene]	20
Clc1cc(CCCN2CCCC2)ccc1C1CCCCC1 [31016 CB, 3-Chloro-4-cyclohexyl-1-(3-pyrrolidino-propyl)-benzene]	20
Clc1cc(C=CCN2CCOCC2)ccc1C1CCCCC1 [31013 CB, 3-chloro-4-cyclohexyl-1-(3-morpholino-propen-1-yl)-benzene]	50
CN(C)CC=Cc1ccc(C2CCCCC2)c(Cl)c1 [31004 CB, 3-chloro-4-cyclohexyl-1-(3-dimethylamino-propen-1-yl)-benzene]	60
CCN(CC)CC=Cc1ccc(-c2ccccc2)cc1 [994 CB, 4-(3-diethylamino-propen-1-yl)-biphenyl]	50
Clc1cc(C=CCN2CCCC2)ccc1C1CCCCC1 [31015 CB, 3-Chloro-4-cyclohexyl-1-(3-pyrrolidino-propen-1-yl)-benzene]	25

Same assay, conditions: po, P.O., read-out: Exploration, median effective dose

Structure (SMILES)	ED50 [mg/kg]
CCN(CC)CC=Cc1ccc(-c2ccccc2)cc1 [994 CB, 4-(3-diethylamino-propen-1-yl)-biphenyl]	50

Tested on: mouse
Assay: Reserpine test (reserpine-induced depression)
Type: in vivo
Details: ip, I.P., reserpine 5 mg/kg subcutaneously, read-out: Reserpine, median effective dose
Description: (Rubin B., Malone M. H., Waugh M. H. and Burke J. C., "Journal of Pharmacology and Experimental Therapeutics", 1957, 120, 125)
Reserpine, administered subcutaneously to a mouse in a dose of 5 mg/kg body weight, causes symptoms of severe depression, with absolute fixity, ptosis of the eyelids, hypothermia and catatonia; the simultaneous administration of a substance having anti-depressive properties leads to the progressive total or partial disappearance of this depressed state.
as §1

Structure (SMILES)	ED50 [mg/kg]
CCN(CC)CCCc1ccc(C2CCCCC2)c(Cl)c1 [934 CB, 3-Chloro-4-cyclohexyl-1-(3-diethylamino-propyl)-benzene]	50
Clc1cc(CCCN2CCCC2)ccc1C1CCCCC1 [31016 CB, 3-Chloro-4-cyclohexyl-1-(3-pyrrolidino-propyl)-benzene]	50
CCN(CC)CC=Cc1ccc(-c2ccccc2)cc1 [994 CB, 4-(3-diethylamino-propen-1-yl)-biphenyl]	50
Clc1cc(C=CCN2CCCC2)ccc1C1CCCCC1 [31015 CB, 3-Chloro-4-cyclohexyl-1-(3-pyrrolidino-propen-1-yl)-benzene]	50

Same assay, conditions: po, P.O., reserpine 5 mg/kg subcutaneously, read-out: Reserpine, median effective dose

Structure (SMILES)	ED50 [mg/kg]
CCN(CC)CC=Cc1ccc(-c2ccccc2)cc1 [994 CB, 4-(3-diethylamino-propen-1-yl)-biphenyl]	50

Tested on: dorsal hippocampus
Assay: Electroencephalographic study, electrical stimulation of the dorsal hippocampus
Type: in vivo, rabbit
Details: conscious rabbits, intravenous; 6 volts, 30 cycles per second, 5 seconds
Description: Electroencephalographic study
(Schmitt H. and Schmitt H., "Therapie", 1966, 3, 675-684)
Electrical stimulation of the dorsal hippocampus (6 volts; 30 cycles per second; 5 seconds, extent: 1.5 milliseconds) causes electrical discharges in the rabbit which continue for several seconds after cessation of electrical stimulation. These discharges last from 15 to 19 seconds in a normal animal. When the rabbit is under the influence of an antidepressant drug, these discharges last much longer. The experiment was carried out on batches of six conscious rabbits implanted by the technique of Monnier M. and Gangloff H. ("Atlas of Stereotaxic brain research on the conscious rabbit", Elsevier 1961), the products being administered intraveneously. The discharges were increased by 60% when the rabbits were treated with compound 933 CB and by 20 % when the rabbits were treated with compound 994 CB.

Structure (SMILES)	Increase of hippocampal discharges [%]
CCN(CC)CC=Cc1ccc(-c2ccccc2)cc1 [994 CB, 4-(3-diethylamino-propen-1-yl)-biphenyl]	20

Tested on: isolated rat duodenum
Assay: Antispasmodic activity, barium chloride-induced spasms of isolated rat duodenum
Details: tyrode bath 37° C, barium chloride 100 μg/liter, compound added 3 minutes before, read-out: 50% effective concentration
Description: The antispasmodic activity of the compounds of the invention was also studied on the isolated rat duodenum, kept alive in an aerated tyrode bath at 37° C. Spasms were induced by the administration of barium chloride in an amount of 100 μg/liter. The compounds of the invention were added, at various concentrations, to the tyrode bath 3 minutes before the addition of the spasmogenic agent and the concentration determined of each which reduced by 50% the extent of the contraction caused by this agent.

Structure (SMILES)	EC50 [ng/mL]
CCN(CC)CCCc1ccc(C2CCCCC2)c(Cl)c1 [934 CB, 3-Chloro-4-cyclohexyl-1-(3-diethylamino-propyl)-benzene]	0.6 (≈ 1.95 nM)
CN(C)CC=Cc1ccc(C2CCCCC2)c(Cl)c1 [31004 CB, 3-chloro-4-cyclohexyl-1-(3-dimethylamino-propen-1-yl)-benzene]	1 to 3 (≈ 3.6 to 10.8 nM)
CCN(CC)CC=Cc1ccc(-c2ccccc2)cc1 [994 CB, 4-(3-diethylamino-propen-1-yl)-biphenyl]	3 (≈ 11.3 nM)
Clc1cc(C=CCN2CCCC2)ccc1C1CCCCC1 [31015 CB, 3-Chloro-4-cyclohexyl-1-(3-pyrrolidino-propen-1-yl)-benzene]	1 to 3 (≈ 3.29 to 9.87 nM)

Tested on: not listed separately
Assay: Toxicity, LD50 in mice
Details: mouse, in vivo, ip, I.P., read-out: LD50 I.P.
Description: The toxicity of the compounds of the invention is generally low, as may be seen from Table IV, which gives the LD50 in mg/kg in mice for some of the compounds of the invention.

Structure (SMILES)	LD50 [mg/kg]
CCN(CC)CCCc1ccc(C2CCCCC2)c(Cl)c1 [934 CB, 3-Chloro-4-cyclohexyl-1-(3-diethylamino-propyl)-benzene]	125 to 250
Clc1cc(CCCN2CCCC2)ccc1C1CCCCC1 [31016 CB, 3-Chloro-4-cyclohexyl-1-(3-pyrrolidino-propyl)-benzene]	50 to 100
Clc1cc(C=CCN2CCOCC2)ccc1C1CCCCC1 [31013 CB, 3-chloro-4-cyclohexyl-1-(3-morpholino-propen-1-yl)-benzene]	500
CN(C)CC=Cc1ccc(C2CCCCC2)c(Cl)c1 [31004 CB, 3-chloro-4-cyclohexyl-1-(3-dimethylamino-propen-1-yl)-benzene]	125
Clc1cc(C=CCN2CCCC2)ccc1C1CCCCC1 [31015 CB, 3-Chloro-4-cyclohexyl-1-(3-pyrrolidino-propen-1-yl)-benzene]	62.5

Same assay, conditions: mouse, in vivo, po, orally, read-out: LD50 orally

Structure (SMILES)	LD50 [mg/kg]
CCN(CC)CCCc1ccc(C2CCCCC2)c(Cl)c1 [934 CB, 3-Chloro-4-cyclohexyl-1-(3-diethylamino-propyl)-benzene]	> 750
Clc1cc(CCCN2CCCC2)ccc1C1CCCCC1 [31016 CB, 3-Chloro-4-cyclohexyl-1-(3-pyrrolidino-propyl)-benzene]	> 750
Clc1cc(C=CCN2CCOCC2)ccc1C1CCCCC1 [31013 CB, 3-chloro-4-cyclohexyl-1-(3-morpholino-propen-1-yl)-benzene]	> 750
CN(C)CC=Cc1ccc(C2CCCCC2)c(Cl)c1 [31004 CB, 3-chloro-4-cyclohexyl-1-(3-dimethylamino-propen-1-yl)-benzene]	> 750
Clc1cc(C=CCN2CCCC2)ccc1C1CCCCC1 [31015 CB, 3-Chloro-4-cyclohexyl-1-(3-pyrrolidino-propen-1-yl)-benzene]	> 750
